For 2 compounds, IC50 and MIC results are on record in PMC11345766, “Computational Design of Pore-Forming Peptides with Potent Antimicrobial and Anticancer Activities” (Journal of Medicinal Chemistry, 2024).

pIC50: −log10 of the molar value. Values after ≈ are worked out from the molar mass of the structure shown.

Test [1] relates to MDA MB 435. The test can be described thus: cells. The following applies: Homo sapiens, MDA-MB-435; Melanoma; RPMI-1640 +10% FCS; 72 hours; read-out: Activity (in M), IC50. It is filed as cell-based, human. Here is the method:
(§1) The CellTiter-Glo luminescent cell viability assay examining the impact of peptides on 22 different human cell lines was purchased from Reaction Biology Europe GmbH (Germany). Cells were cultured in different media (Table S1), seeded into a flat-bottom 96-well plate, and incubated at 37 °C. After overnight incubation, test compounds were added with 1% PBS/0.3% Tween 20 and the reference compound bortezomib was added with 0.1% DMSO. Negative controls were solvents alone, and positive control was 10 μM staurosporine. After 72 h of incubation at 37 °C, 5 or 10% CO2 (dependent on the medium), and 1 h equilibration at room temperature, well plates were treated with CellTiter-Glo reagent (Promega) for an hour and luminescence was measured using a luminometer.
(§2) Table S1. In vitro activity against 22 different human cancer cell lines.
(§3) Sr. Cancer Activity (in M)
(§4) no. Cell line type Culture medium
(§5) The effect of investigated compounds on the proliferation of 22 different human cell lines is
(§6) Twenty of these 22 cell lines represent specific cancer types and 2 were non-cancerous. Peptide
(§7) Anticancer drug bortezomib was used as the […]

The test system of test [2] is OVCAR-3. The test can be described thus: cells. The test is classed as cell-based, human. The following applies: Homo sapiens, OVCAR-3; Ovarian; RPMI-1640 +10% FCS; 72 hours; read-out: Activity (in M), IC50. As to the method:
as §1, §2, §3, §4, §5, §6, §7

Test [3] deals with HCT-15. The test can be described thus: cells. The test is classed as cell-based, human. The following applies: Homo sapiens, HCT-15; Colorectal; RPMI-1640 +10% FCS; 72 hours; read-out: Activity (in M), IC50. Here is the method: as §1, §2, §3, §4, §5, §6, §7
Test [4] concerns RPMI 8226. The test can be described thus: cells. The test is classed as cell-based, human. The following applies: Homo sapiens, RPMI-8226; Myeloma; RPMI-1640 +10% FCS; 72 hours; read-out: Activity (in M), IC50. As to the method:
as §1, §2, §3, §4, §5, §6, §7

Test [5] has as its system Caki-1. Kind of test: cells. The following applies: Homo sapiens, Kidney, DMEM + 10% FCS, 72 hours. The test is classed as cell-based. Here is the method:
as §1, §2, §3, §4, §5, §6, §7

The test system of test [6] is H460. The test can be described thus: cells. It is filed as cell-based. The following applies: Homo sapiens, NCI-H460; Lung; DMEM + 10% FCS; 72 hours. As to the method:
as §1, §2, §3, §4, §5, §6, §7

Test [7] has as its system MDA MB 231. Kind of test: cells. It is filed as cell-based. The following applies: Homo sapiens, Breast, DMEM + 10% FCS, 72 hours. As to the method: as §1, §2, §3, §4, §5, §6, §7
Test [8] deals with T-47D. The test can be described thus: cells. The following applies: Homo sapiens, T47D; Breast; RPMI-1640 +10% FCS + 0,2U/mL Insulin; 72 hours. It is filed as cell-based. As to the method: as §1, §2, §3, §4, §5, §6, §7
For test [9], the system named is DU-145. Kind of test: cells. It is filed as cell-based. The following applies: Homo sapiens, Prostate, DMEM + 10% FCS, 72 hours. Here is the method:
as §1, §2, §3, §4, §5, §6, §7

The subject of test [10] is MCF-7. Kind of test: cells. It is filed as cell-based. The following applies: Homo sapiens, MCF7; Breast; DMEM + 10% FCS; 72 hours. Here is the method:
as §1, §2, §3, §4, §5, §6, §7

In test [11] the test system is NHDF. The test can be described thus: cells. The following applies: Homo sapiens; Non-cancerous; Promocell NHDF-Medium C-23010 + Sup. C39315; 72 hours. The test is classed as cell-based. Here is the method: as §1, §2, §3, §4, §5, §6, §7
For test [12], the system named is A549. The test can be described thus: cells. It is filed as cell-based. The following applies: Homo sapiens, Lung, DMEM + 10% FCS, 72 hours. As to the method: as §1, §2, §3, §4, §5, §6, §7
For test [13], the system named is MSC_UC. Kind of test: cells. It is filed as cell-based. The following applies: Homo sapiens; Non-cancerous; Promocell MSC-Medium C-28010 + Sup. C39810; 72 hours. Here is the method: as §1, §2, §3, §4, §5, §6, §7
The subject of test [14] is SW620. Kind of test: cells. The test is classed as cell-based. The following applies: Homo sapiens, SW-620; Colorectal; DMEM + 10% FCS; 72 hours. As to the method:
as §1, §2, §3, §4, §5, §6, §7

In test [15] the test system is HCT116. Kind of test: cells. The following applies: Homo sapiens, HCT-116; Colorectal; DMEM + 10% FCS; 72 hours. The test is classed as cell-based. As to the method: as §1, §2, §3, §4, §5, §6, §7
Test [16] relates to SK-OV3. Kind of test: cells. The test is classed as cell-based. The following applies: Homo sapiens, SK-OV-3; Ovarian; DMEM + 10% FCS; 72 hours. As to the method:
as §1, §2, §3, §4, §5, §6, §7

Test [17] relates to U251MG. Kind of test: cells. It is filed as cell-based. The following applies: Homo sapiens, U-251; Brain; DMEM + 10% FCS; 72 hours. Here is the method:
as §1, §2, §3, §4, §5, §6, §7

The subject of test [18] is HL-60. The test can be described thus: cells. It is filed as cell-based. The following applies: Homo sapiens, Leukemia, RPMI-1640 + 10% FCS, 72 hours. Here is the method:
as §1, §2, §3, §4, §5, §6, §7

The test system of test [19] is PC3. The test can be described thus: cells. The test is classed as cell-based. The following applies: Homo sapiens, PC-3; Prostate; DMEM + 10% FCS; 72 hours. As to the method:
as §1, §2, §3, §4, §5, §6, §7

Test [20] concerns A498. The test can be described thus: cells. The test is classed as cell-based. The following applies: Homo sapiens, Kidney, DMEM + 10% FCS, 72 hours. Here is the method:
as §1, §2, §3, §4, §5, §6, §7

In test [21] the test system is K562. The test can be described thus: cells. It is filed as cell-based. The following applies: Homo sapiens, Leukemia, RPMI-1640 + 10% FCS, 72 hours. Here is the method: as §1, §2, §3, §4, §5, §6, §7
The subject of test [22] is MOLT-4. Kind of test: cells. The following applies: Homo sapiens, Leukemia, DMEM + 10% FCS, 72 hours. It is filed as cell-based. Here is the method:
as §1, §2, §3, §4, §5, §6, §7

The test system of test [23] is E. coli (TOP10). Kind of test: Broth microdilution antimicrobial susceptibility assay. It is filed as cell-based, Escherichia coli. The following applies: Escherichia coli; 24 h, MHB. The text has this:
(§8) To test antimicrobial activity, all peptides were initially screened, in a broth microdilution assay, against Gram-negative Escherichia coli (TOP10) and Gram-positive Staphylococcus carnosus (CCM 4838T) Biosafety Level 1 (BSL-1) bacteria (Table 2). […] Four other mutants (LP3, LP26, LP36, and LP39) had higher activity than LP1 against E. coli, and two mutants (LP23 and LP32) had higher activity than LP1 against S. carnosus. Six mutants (LP29, LP30, LP31, LP33, LP40, and LP43) were not active against one or both bacteria, even at the highest concentration tested (50 μM).
(§9) Antimicrobial activity against E. coli TOP10 and S. carnosus CCM 4838T was tested using the broth microdilution assay. Bacteria were cultured in MHA Petri dish for 24 h, subcultured in an MHB test tube for 6 h at 37 °C, and diluted to 10^6 CFU/mL (OD600). […] Dilution series was prepared for concentrations 50 to 0.1 μM in a flat-bottom 96-well plate, inoculated with bacteria, and incubated for 24 h at 37 °C. Growth control wells were free from test compounds, and sterility control wells were free from bacteria. Bacterial MIC was determined as the lowest concentration of test compounds that inhibited visible growth of bacteria (i.e., no visible turbidity).
A general note: Broth dilution looks for growth in wells or tubes with falling amounts of substance.

Test [24] relates to S. carnosus (CCM 4838T). Kind of test: microbe, parasite or virus in culture. The test is classed as cell-based, Staphylococcus carnosus. The following applies: Staphylococcus carnosus; 24 h, MHB; read-out: Antimicrobial activity (MIC) S. carnosus (CCM 4838T).
Excerpt: as §8, §9

Test [25] has as its system ESKAPEE pathogens. Kind of test: MIC against five commercially available ESKAPEE strains (Figure 3a). It is filed as cell-based. Here is the method:
First, LP1 and five mutants (LP3, LP8, LP18, LP22, and LP28) were tested against five commercially available ESKAPEE strains (Figure 3a). Promising activity was obtained against Gram-negative Acinetobacter baumannii (GSAB 164), which is resistant to colistin and meropenem, followed by a quality control strain of E. coli (ATCC 25922). Micromolar activity, i.e., MIC of 1 μM, was obtained with both LP1 and LP18.
(Protocol a) Antimicrobial activity test against ESKAPEE strains S. aureus NRS 1, K. pneumoniae ATCC 700603, A. baumannii GSAB 164, P. aeruginosa NCTC 13437, and E. coli ATCC 25922 was purchased from Evotec (UK).

Test [26] deals with ESKAPEE pathogens. The test can be described thus: MIC against nine ampicillin-resistant ESKAPEE strains (Figure 3d). It is filed as cell-based. The following applies: 72 h.
In test [27] the test system is ESKAPEE pathogens. The test can be described thus: MIC against six reference strains of ESKAPEE pathogens (Figure 3b). It is filed as cell-based.
Excerpt: The effect of net charge was further investigated against six reference strains of ESKAPEE pathogens (Figure 3b).

The term pIC50 denotes the IC50 on a negative log10 scale, so that one unit is a factor of ten.

For the compound `CC(C)C[C@H](NC(=O)[C@H](Cc1ccccc1)NC(=O)c1cnccn1)B(O)O` [Bortezomib], the pIC50 in test [1] is 8.37; in test [2], 8.40; in test [3] it was 8.01; in [4], 8.49; in test [5], 7.92; in [6], 7.59. Also, the pIC50 was 7.92 in test [7]; 8.07 in test [8]; 7.80 in test [9]; 7.68 in [10]; 7.85 in [11]; 7.60 in test [12]. For the same compound, the negative logarithm of the IC50 (pIC50) in test [13] was 8.33; in [14], 8.00; in test [15] it was 8.16; in test [16] it was 7.72; in [17], 7.72; in test [18] it was 8.39. Besides, the negative-log IC50 (pIC50) is 7.80 in test [19], 8.04 in [20], 8.04 in test [21] and 8.40 in [22].
As to `CC1(C)S[C@@H]2[C@H](NC(=O)[C@H](N)c3ccccc3)C(=O)N2[C@H]1C(=O)O` [Ampicillin], the MIC in [23] was 12.5 µM (≈ 4.37 µg/mL); in [24], 0.1 µM (≈ 0.0349 µg/mL); in [25] it was over 180 µM; in test [26], over 360 µM; in test [27], over 92 µM.
